Reference: PubChem BioAssay AID1963446 (Molecular Pharmacology Branch, DTP, NCI, 2024)
Values joined by “and” are separate entries in the source; they are usually repeats but may differ in a detail not shown here. Equal values may be shown once. Blank lines part the entries; values can stand above or below the compound they belong to.

Test system: 993429-296-R-J1-PDC complex spheroid growth, percent test/control
Experiment: Anticancer human tumor 993429-296-R-J1-PDC patient-derived uterine sarcoma cell line growth inhibition [Asc]
Details: for viability, T/C: stronger effect = lower value
Summary of the method: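 Tumor cells were grown as complex spheroids with human endothelial cells (HUVEC) and human mesenchymal stem cells as stroma. Agents were tested alone and in combination, in half-log steps down from the clinical Cmax, or from 10 microM where Cmax was unknown.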

[1] = curve of first compound, second compound 0.1 µM
[2] = curve of first compound, second compound 0.316 µM
[3] = curve of first compound, second compound 1 µM
[4] = curve of first compound, second compound 3.16 µM
[5] = curve of first compound, second compound 10 µM
[6] = second compound 0.1 µM, first compound 0.0316 µM
[7] = second compound 0.1 µM, first compound 0.1 µM
[8] = second compound 0.1 µM, first compound 0.316 µM
[9] = second compound 0.1 µM, first compound 1 µM
[10] = second compound 0.316 µM, first compound 0.0316 µM
[11] = second compound 0.316 µM, first compound 0.1 µM
[12] = second compound 0.316 µM, first compound 0.316 µM
[13] = second compound 0.316 µM, first compound 1 µM
[14] = second compound 1 µM, first compound 0.0316 µM
[15] = second compound 1 µM, first compound 0.1 µM
[16] = second compound 1 µM, first compound 0.316 µM
[17] = second compound 1 µM, first compound 1 µM
[18] = second compound 3.16 µM, first compound 0.0316 µM
[19] = second compound 3.16 µM, first compound 0.1 µM
[20] = second compound 3.16 µM, first compound 0.316 µM
[21] = second compound 3.16 µM, first compound 1 µM
[22] = second compound 10 µM, first compound 0.0316 µM
[23] = second compound 10 µM, first compound 0.1 µM
[24] = second compound 10 µM, first compound 0.316 µM
[25] = second compound 10 µM, first compound 1 µM
[26] = second compound 0.1 µM, first compound 0.00316 µM
[27] = second compound 0.1 µM, first compound 0.01 µM
[28] = second compound 0.316 µM, first compound 0.00316 µM
[29] = second compound 0.316 µM, first compound 0.01 µM
[30] = second compound 1 µM, first compound 0.00316 µM
[31] = second compound 1 µM, first compound 0.01 µM
[32] = second compound 3.16 µM, first compound 0.00316 µM
[33] = second compound 3.16 µM, first compound 0.01 µM
[34] = second compound 10 µM, first compound 0.00316 µM
[35] = second compound 10 µM, first compound 0.01 µM
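Also: spheroids exposed to compounds for seven days.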

SMILES: C#Cc1c(F)ccc2cc(O)cc(-c3ncc4c(N5CC6CCC(C5)N6)nc(OCC56CCCN5CC(F)C6)nc4c3F)c12 (configuration not stated) + Cc1c(S(C)(=O)=O)c(-c2cc(F)cc(N3CCN(c4ccc(NS(=O)(=O)c5ccc(NC(CCN6CCC(C(=O)OCCCP(=O)(O)O)CC6)CSc6ccccc6)c(S(=O)(=O)C(F)(F)F)c5)cc4)CC3)c2)c(-c2ccc(Cl)cc2)n1C(C)C
IC50 [1]: 2930 nM | IC50 [2]: 1410 nM | IC50 [3]: 1450 nM | IC50 [4]: < 31.6 nM | IC50 [5]: 2750 nM | viability, T/C [6]: 70.7% | viability, T/C [7]: 69.9% | viability, T/C [8]: 64.8% | viability, T/C [9]: 67.3% | viability, T/C (second compound 0.1 µM, first compound 3.16 µM): 48.8% | viability, T/C (second compound 0.1 µM, first compound 10 µM): 2.44% | viability, T/C [10]: 55.4% | viability, T/C [11]: 73.8% | viability, T/C [12]: 66.5% | viability, T/C [13]: 53.1% | viability, T/C (second compound 0.316 µM, first compound 3.16 µM): 36% | viability, T/C (second compound 0.316 µM, first compound 10 µM): 1.38% | viability, T/C [14]: 60.1% | viability, T/C [15]: 55.9% | viability, T/C [16]: 50.7% | viability, T/C [17]: 67.3% | viability, T/C (second compound 1 µM, first compound 3.16 µM): 32% | viability, T/C (second compound 1 µM, first compound 10 µM): 0.37% | viability, T/C [18]: 53.6% | viability, T/C [19]: 45.6% | viability, T/C [20]: 45.6% | viability, T/C [21]: 36% | viability, T/C (second compound 3.16 µM, first compound 3.16 µM): 33% | viability, T/C (second compound 3.16 µM, first compound 10 µM): 0.32% | viability, T/C [22]: 94.9% | viability, T/C [23]: 98.8% | viability, T/C [24]: 88.1% | viability, T/C [25]: 74.5% | viability, T/C (second compound 10 µM, first compound 3.16 µM): 46.9% | viability, T/C (second compound 10 µM, first compound 10 µM): 2.69%

SMILES: COc1c(OCCCN2CCOCC2)ccc2c3n(c(=NC(=O)c4cnc(N)nc4)nc12)CCN3
viability, T/C (compound 0.00316 µM): 91.3% and 101% and 95.5% | viability, T/C (compound 0.01 µM): 76.7% and 74.9% and 85.9% | viability, T/C (compound 0.0316 µM): 32.1% and 39% and 47.7% | viability, T/C (compound 0.1 µM): 7.79% and 8.14% and 20.2% | viability, T/C (compound 0.316 µM): 3.91% and 3.64% and 6.96% | viability, T/C (compound 1 µM): 1.4% and 1.43% and 2.5% | IC50 (curve of compound): 20 nM and 21.5 nM and 31.6 nM

SMILES: CCN1CCN(Cc2ccc(Nc3ncc(F)c(-c4cc(F)c5nc(C)n(C(C)C)c5c4)n3)nc2)CC1 + Cc1c(S(C)(=O)=O)c(-c2cc(F)cc(N3CCN(c4ccc(NS(=O)(=O)c5ccc(NC(CCN6CCC(C(=O)OCCCP(=O)(O)O)CC6)CSc6ccccc6)c(S(=O)(=O)C(F)(F)F)c5)cc4)CC3)c2)c(-c2ccc(Cl)cc2)n1C(C)C
IC50 [1]: > 1000 nM | IC50 [2]: 859 nM | IC50 [3]: 344 nM | IC50 [4]: < 3.16 nM | IC50 [5]: 463 nM | viability, T/C [26]: 70.2% | viability, T/C [27]: 81.9% | viability, T/C [6]: 64.3% | viability, T/C [7]: 60.6% | viability, T/C [8]: 85% | viability, T/C [9]: 50.7% | viability, T/C [28]: 54.2% | viability, T/C [29]: 55.5% | viability, T/C [10]: 63.5% | viability, T/C [11]: 64.7% | viability, T/C [12]: 64.3% | viability, T/C [13]: 32.5% | viability, T/C [30]: 48.1% | viability, T/C [31]: 52.4% | viability, T/C [14]: 49.5% | viability, T/C [15]: 58.7% | viability, T/C [16]: 55% | viability, T/C [17]: 16.5% | viability, T/C [32]: 37.3% | viability, T/C [33]: 45.3% | viability, T/C [18]: 46.6% | viability, T/C [19]: 41.8% | viability, T/C [20]: 38.7% | viability, T/C [21]: 16.2% | viability, T/C [34]: 70.5% | viability, T/C [35]: 67.4% | viability, T/C [22]: 71.2% | viability, T/C [23]: 76.9% | viability, T/C [24]: 67.4% | viability, T/C [25]: 14%

More lines, main results first:

IC50 (curve of first compound, second compound 0.01 µM): 103 nM | IC50 (curve of first compound, second compound 0.0316 µM): 84.7 nM | IC50 [1]: 56.8 nM | IC50 [2]: < 9.49 nM | IC50 [3]: 107 nM
SMILES: Cc1nc(N2CCC3(CC2)COC(C)C3N)c(CO)nc1Sc1ccnc(N)c1Cl (configuration not stated) + CNC(C)C(=O)NC1CN(S(=O)(=O)c2cccc(S(=O)(=O)N3CCC4CCC(C(=O)NC(c5ccccc5)c5ccccc5)N4C(=O)C(NC(=O)C(C)NC)C3)c2)CCC2CCC(C(=O)NC(c3ccccc3)c3ccccc3)N2C1=O
viability, T/C (second compound 0.01 µM, first compound 0.00949 µM): 68.6% | viability, T/C (second compound 0.01 µM, first compound 0.03 µM): 61.1% | viability, T/C (second compound 0.01 µM, first compound 0.0949 µM): 49.5% | viability, T/C (second compound 0.01 µM, first compound 0.3 µM): 42.5% | viability, T/C (second compound 0.01 µM, first compound 0.949 µM): 37% | viability, T/C (second compound 0.01 µM, first compound 3 µM): 32.2% | viability, T/C (second compound 0.0316 µM, first compound 0.00949 µM): 67.5% | viability, T/C (second compound 0.0316 µM, first compound 0.03 µM): 57.5% | viability, T/C (second compound 0.0316 µM, first compound 0.0949 µM): 50.9% | viability, T/C (second compound 0.0316 µM, first compound 0.3 µM): 39.4% | viability, T/C (second compound 0.0316 µM, first compound 0.949 µM): 36.7% | viability, T/C (second compound 0.0316 µM, first compound 3 µM): 30.9% | viability, T/C (second compound 0.1 µM, first compound 0.00949 µM): 60.1% | viability, T/C (second compound 0.1 µM, first compound 0.03 µM): 54.9% | viability, T/C (second compound 0.1 µM, first compound 0.0949 µM): 45.2% | viability, T/C (second compound 0.1 µM, first compound 0.3 µM): 39.8% | viability, T/C (second compound 0.1 µM, first compound 0.949 µM): 29% | viability, T/C (second compound 0.1 µM, first compound 3 µM): 28.3% | viability, T/C (second compound 0.316 µM, first compound 0.00949 µM): 43.6% | viability, T/C (second compound 0.316 µM, first compound 0.03 µM): 48.9% | viability, T/C (second compound 0.316 µM, first compound 0.0949 µM): 51.9% | viability, T/C (second compound 0.316 µM, first compound 0.3 µM): 41.3% | viability, T/C (second compound 0.316 µM, first compound 0.949 µM): 32.4% | viability, T/C (second compound 0.316 µM, first compound 3 µM): 29.2% | viability, T/C (second compound 1 µM, first compound 0.00949 µM): 53.1% | viability, T/C (second compound 1 µM, first compound 0.03 µM): 48.1% | viability, T/C (second compound 1 µM, first compound 0.0949 µM): 52.2% | viability, T/C (second compound 1 µM, first compound 0.3 µM): 40% | viability, T/C (second compound 1 µM, first compound 0.949 µM): 20.5% | viability, T/C (second compound 1 µM, first compound 3 µM): 26.7%

IC50 [1]: 12.6 nM | IC50 [2]: 11.6 nM | IC50 [3]: 4.23 nM | IC50 [4]: < 3.16 nM | IC50 [5]: 10.1 nM
SMILES: COc1c(OCCCN2CCOCC2)ccc2c3n(c(=NC(=O)c4cnc(N)nc4)nc12)CCN3 + Cc1c(S(C)(=O)=O)c(-c2cc(F)cc(N3CCN(c4ccc(NS(=O)(=O)c5ccc(NC(CCN6CCC(C(=O)OCCCP(=O)(O)O)CC6)CSc6ccccc6)c(S(=O)(=O)C(F)(F)F)c5)cc4)CC3)c2)c(-c2ccc(Cl)cc2)n1C(C)C
viability, T/C [26]: 76.5% | viability, T/C [27]: 54.1% | viability, T/C [6]: 29.3% | viability, T/C [7]: 3.96% | viability, T/C [8]: 1.63% | viability, T/C [9]: 0.23% | viability, T/C [28]: 71.7% | viability, T/C [29]: 54% | viability, T/C [10]: 22.2% | viability, T/C [11]: 3.44% | viability, T/C [12]: 0.88% | viability, T/C [13]: 0.17% | viability, T/C [30]: 54.2% | viability, T/C [31]: 37.9% | viability, T/C [14]: 23.3% | viability, T/C [15]: 3.11% | viability, T/C [16]: 0.68% | viability, T/C [17]: 0.31% | viability, T/C [32]: 35.8% | viability, T/C [33]: 33.7% | viability, T/C [18]: 14.8% | viability, T/C [19]: 2.35% | viability, T/C [20]: 0.33% | viability, T/C [21]: 0.18% | viability, T/C [34]: 79.3% | viability, T/C [35]: 49.4% | viability, T/C [22]: 20.7% | viability, T/C [23]: 1.24% | viability, T/C [24]: 0.28% | viability, T/C [25]: 0.25%
